# Where a name gives a salt, the structure may show the parent alone. Read-outs that look alike come from different tables or passages of the source.
# Columns and labels:
# AaDOP2 [1] = molecular target: T1, AaDOP2 (Aedes aegypti, UniProt H6D5H2); assay: cell-based
# AaDOP1 = AaDOP1 (Aedes aegypti, UniProt H6D5H1); assay: CRELuc reporter dose-response in HEK293 cells stably expressing AaDOP1; type: cell-based
# [2] = molecular target: T2, human D1 dopamine receptor (hD1) (Homo sapiens, UniProt P21728); assay: cAMP accumulation secondary assay, hD1-expressing cells; type: cell-based
# T2 construct: expressed in transfected cells
# AaDOP2 [3] = molecular target: T1, AaDOP2; assay: AaDOP2 antagonist screen of the LOPAC1280 library (HEK-CRELuc-Aadop2 cells, luminescence); type: cell-based; details: for inhibition at 10 µM: read-out: % of the SCH23390 effect (percent inhibition of receptor response relative to the SCH23390 control)
# AaDOP2 [4] = molecular target: T1, AaDOP2; details: for Relative fold selectivity for AaDOP2 vs. hD1: from IC50 values at AaDOP2 and hD1
# AaDOP2 [5] = molecular target: T1, AaDOP2; assay: cell-based; remark: listed apart in the source
# [6] = test system: Ae. aegypti L4-stage larvae (Liverpool strain); assay: whole plant or invertebrate; type: in vivo, Aedes aegypti; details: for average mortality: single dose-point 400 µM, 24 hours post-treatment
# Procedure: Single dose-point and dose response in vivo mosquito bioassays were used to assess the toxicity of selected AaDOP2 receptor antagonists identified in the chemical screen. Larvae of Ae. aegypti (Liverpool strain) were reared under standard laboratory conditions on a 12 hr day/night cycle at 75% RH and 28°C, and bioassays were conducted at room temperature (22–24°C). Larvae were transferred from standard rearing trays into six-well tissue culture plates (Corning, Inc. Corning, NY) using a small plastic pipette. Ten L4-stage larvae were included per well, each containing five ml of de-ionized water and the assigned drug concentration. Controls were conducted similarly but lacked a drug treatment. Bioassays employed a double-blind experimental design, and percent mortality was scored 24 hr following administration of drugs. Single dose-point assays were conducted using 400 µM drug and included three biological replicates each consisting of 50–100 larvae. Dose-response assays were conducted using five doses (400, 200, 100, 50, and 25 µM) of the compounds suspended in water, with water alone as a control. Five technical replicates, each including 10 larvae, were performed per dose, and the assay was repeated three times.
# AaDOP2 [7] = molecular target: T1, AaDOP2
# [8] = HEK293 cells stably expressing CRELuc reporter and AaDOP1, read-out: EC50 values AaDOP1
# [9] = 10 µM SCH23390 in the presence of 1 µM dopamine
# [10] = 10 µM compound, 300 nM dopamine, 2 hr, hit = compound effect <20
# Chain of AaDOP1 (H6D5H1 entry or part of it): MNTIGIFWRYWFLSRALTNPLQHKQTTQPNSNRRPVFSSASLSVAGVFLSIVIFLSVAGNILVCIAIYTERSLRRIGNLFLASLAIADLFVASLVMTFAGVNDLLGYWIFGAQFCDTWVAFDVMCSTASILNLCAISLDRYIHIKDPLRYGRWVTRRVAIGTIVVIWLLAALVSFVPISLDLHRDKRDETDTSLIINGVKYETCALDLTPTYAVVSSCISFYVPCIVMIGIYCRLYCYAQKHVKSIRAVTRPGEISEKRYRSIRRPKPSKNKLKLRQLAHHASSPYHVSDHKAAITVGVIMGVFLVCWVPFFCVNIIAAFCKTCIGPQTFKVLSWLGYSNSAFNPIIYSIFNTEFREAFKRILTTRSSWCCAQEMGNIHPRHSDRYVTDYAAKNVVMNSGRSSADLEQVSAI
# T1 sequence (H6D5H2 1-476): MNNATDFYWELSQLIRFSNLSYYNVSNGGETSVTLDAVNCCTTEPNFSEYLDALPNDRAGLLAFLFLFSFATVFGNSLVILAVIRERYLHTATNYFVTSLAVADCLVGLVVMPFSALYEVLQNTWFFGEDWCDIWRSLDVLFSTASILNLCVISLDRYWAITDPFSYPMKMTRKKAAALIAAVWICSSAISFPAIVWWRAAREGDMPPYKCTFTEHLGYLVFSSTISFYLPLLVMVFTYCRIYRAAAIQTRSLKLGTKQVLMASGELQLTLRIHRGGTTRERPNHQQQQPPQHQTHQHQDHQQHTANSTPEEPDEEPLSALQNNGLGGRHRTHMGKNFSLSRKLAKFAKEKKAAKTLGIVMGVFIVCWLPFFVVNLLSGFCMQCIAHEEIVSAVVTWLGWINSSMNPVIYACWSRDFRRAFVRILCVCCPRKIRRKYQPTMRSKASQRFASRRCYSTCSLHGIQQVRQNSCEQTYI
# T2 sequence (P21728 whole entry): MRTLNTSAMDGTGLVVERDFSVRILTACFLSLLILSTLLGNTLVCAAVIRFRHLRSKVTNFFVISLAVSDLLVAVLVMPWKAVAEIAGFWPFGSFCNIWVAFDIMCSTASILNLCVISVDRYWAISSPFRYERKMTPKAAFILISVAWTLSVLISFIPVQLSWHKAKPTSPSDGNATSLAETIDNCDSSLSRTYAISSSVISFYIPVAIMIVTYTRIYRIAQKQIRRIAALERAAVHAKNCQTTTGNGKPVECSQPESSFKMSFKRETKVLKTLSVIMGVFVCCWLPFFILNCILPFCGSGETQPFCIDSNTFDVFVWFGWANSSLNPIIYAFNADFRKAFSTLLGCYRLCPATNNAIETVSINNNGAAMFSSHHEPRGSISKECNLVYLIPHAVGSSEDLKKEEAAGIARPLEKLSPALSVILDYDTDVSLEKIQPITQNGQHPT
compound,measurement,setting,value
"Oc1cc2c(cc1O)[C@H]1c3ccccc3CN[C@@H]1CC2 (racemic) [Dihydrexidine, dihydrexidine]",EC50,AaDOP2 [1],0.29 ± 0.054 µM
same,EC50,AaDOP1; [8],6.9 ± 1.5 nM
"CN(C)CCC=C1c2ccccc2CCc2ccccc21 [Compound 92, Amitriptyline hydrochloride]",IC50,[2],470 ± 49 nM
same,"Compound effect (percent receptor signaling in presence of test compound, relative lux units relative to the SCH23390 control)",AaDOP2 [3],10
same,inhibition at 10 µM,AaDOP2 [3],90%
same,Relative fold selectivity for AaDOP2 vs. hD1,AaDOP2 [4]; listed as Amitriptyline,36 fold
same,Relative fold selectivity for AaDOP2 vs. hD1,AaDOP2 [4]; listed as amitriptyline,more than 30 fold
same,IC50,AaDOP2 [5],14 ± 3.4 nM
same,LC50,"[6]; Aedes aegypti, 24 h",78 µM
same,LC90,"[6]; dose-response 25-400 µM, 24 hr",185 µM
same,average mortality,[6],93%
"NC[C@H](O)c1ccc(O)c(O)c1 [Compound 106, L(-)-Norepinephrine bitartrate]",EC50,AaDOP2 [1],≥ 10 µM
same,"Compound effect (percent receptor signaling in presence of test compound, relative lux units relative to the SCH23390 control)",AaDOP2 [3],115
same,EC50,AaDOP1,760 ± 180 nM
"CN(C)CCC=C1c2ccccc2COc2ccccc21 [Compound 386, Doxepin hydrochloride]",average mortality,[6],72%
"CN1CCc2cc(Cl)c(O)cc2[C@@H](c2ccccc2)C1 [Compound 446, R(+)-SCH-23390 hydrochloride]",inhibition at 10 µM,AaDOP2 [3],83%
same,inhibition of dopamine-mediated stimulation of AaDOP1,AaDOP1; [9],robustly inhibited
same,IC50,AaDOP2 [5],1600 ± 73 nM
same,inhibition of dopamine-mediated stimulation of AaDOP2,AaDOP2 [7]; [9],robustly inhibited
"CNC[C@H](O)c1ccc(O)c(O)c1 [Compound 491, (-)-Epinephrine bitartrate]",EC50,AaDOP2 [1],≥ 10 µM
"OCCN1CCN(CC/C=C2/c3ccccc3Sc3ccc(C(F)(F)F)cc32)CC1 [Compound 541, cis-(Z)-Flupenthixol dihydrochloride, reference compound]",inhibition at 10 µM,AaDOP2 [3],88%
same,IC50,AaDOP2 [5],20 ± 5.4 nM
"NCCc1c[nH]cn1 [Compound 596, Histamine dihydrochloride]",EC50,AaDOP2 [1],≥ 10 µM
same,EC50,"AaDOP1; HEK293 cells stably expressing CRELuc reporter and AaDOP1, ≥10 µM considered lacking intrinsic activity, read-out: EC50 values AaDOP1",≥ 10000 nM
"NCCc1c[nH]c2ccc(O)cc12 [Compound 613, Serotonin hydrochloride]",EC50,AaDOP2 [1],≥ 10 µM
same,"Compound effect (percent receptor signaling in presence of test compound, relative lux units relative to the SCH23390 control)",AaDOP2 [3],110
same,EC50,AaDOP1,≥ 10000 nM
"O=C(Nc1ccc([N+](=O)[O-])cc1Cl)c1cc(Cl)ccc1O [Compound 847, Niclosamide, reference compound]","Compound effect (percent receptor signaling in presence of test compound, relative lux units relative to the SCH23390 control)",AaDOP2 [3],5
same,inhibition at 10 µM,AaDOP2 [3],95%
same,IC50,AaDOP2 [5],≥ 10000 nM
"Oc1cc(O)cc(/C=C/c2ccc(O)c(O)c2)c1 [Compound 916, Piceatannol, reference compound]","Compound effect (percent receptor signaling in presence of test compound, relative lux units relative to the SCH23390 control)",AaDOP2 [3],2
same,inhibition at 10 µM,AaDOP2 [3],98%
same,IC50,AaDOP2 [5],≥ 10000 nM
"Oc1ccc(/C=C/c2cc(O)cc(O)c2)cc1 [Compound 1048, Resveratrol, reference compound]","Compound effect (percent receptor signaling in presence of test compound, relative lux units relative to the SCH23390 control)",AaDOP2 [3],11
same,inhibition at 10 µM,AaDOP2 [3],89%
same,IC50,AaDOP2 [5],≥ 10000 nM
"NCCc1ccc(O)cc1 [Compound 1162, 4-Hydroxyphenethylamine hydrochloride]",EC50,AaDOP2 [1],≥ 10 µM
same,EC50,AaDOP1,≥ 10000 nM
"CSc1ccc2c(c1)C(N1CCN(C)CC1)Cc1ccccc1S2.O=C(O)/C=C\C(=O)O (stereo not drawn) [Methiothepin, methiothepin maleate]",IC50,"[2]; read-out: IC50 value (at 100 nM dopamine for hD1), 100 nM dopamine, cAMP accumulation",80 ± 11 nM
same,Relative fold selectivity for AaDOP2 vs. hD1,AaDOP2 [4],5.7 fold
same,IC50,"AaDOP2 [4]; read-out: IC50 value (at 3 µM dopamine for AaDOP2), 3 µM dopamine, cAMP accumulation",14 ± 5.1 nM
Oc1cc2c(cc1O)C(c1ccccc1)CNCC2 (stereo not drawn) [SKF 38393],EC50,AaDOP2 [1],≥ 10 µM
same,EC50,AaDOP1; [8],310 ± 46 nM
Oc1cc2c(c(Cl)c1O)CCNCC2c1ccccc1 (stereo not drawn) [SKF 81297],EC50,AaDOP1; [8],24 ± 7 nM
same,EC50,"AaDOP2 [7]; read-out: EC50 values AaDOP2, HEK293 cells stably expressing CRELuc reporter and AaDOP2, ≥10 µM considered lacking intrinsic activity",≥ 10 µM
"L-Leucinethiol, oxidized dihydrochloride [Compound 709]","Compound effect (percent receptor signaling in presence of test compound, relative lux units relative to the SCH23390 control)",AaDOP2 [3]; [10],81%
"MDL 26,630 trihydrochloride [Compound 828]","Compound effect (percent receptor signaling in presence of test compound, relative lux units relative to the SCH23390 control)",AaDOP2 [3]; [10],93%
MHPG piperazine [Compound 577],"Compound effect (percent receptor signaling in presence of test compound, relative lux units relative to the SCH23390 control)",AaDOP2 [3],104
NCS-356 [Compound 849],"Compound effect (percent receptor signaling in presence of test compound, relative lux units relative to the SCH23390 control)",AaDOP2 [3],99
NS 521 oxalate [Compound 869],"Compound effect (percent receptor signaling in presence of test compound, relative lux units relative to the SCH23390 control)",AaDOP2 [3],75
OXA-22 iodide [Compound 326],"Compound effect (percent receptor signaling in presence of test compound, relative lux units relative to the SCH23390 control)",AaDOP2 [3],88
Oligomycin A [Compound 906],"Compound effect (percent receptor signaling in presence of test compound, relative lux units relative to the SCH23390 control)",AaDOP2 [3],82
Phenylbenzene-omega-phosphono-alpha-amino acid [Compound 1021],"Compound effect (percent receptor signaling in presence of test compound, relative lux units relative to the SCH23390 control)",AaDOP2 [3],95
Picrotoxin [Compound 924],"Compound effect (percent receptor signaling in presence of test compound, relative lux units relative to the SCH23390 control)",AaDOP2 [3],98
Pyrazinecarboxamide [Compound 966],"Compound effect (percent receptor signaling in presence of test compound, relative lux units relative to the SCH23390 control)",AaDOP2 [3]; [10],79%
"R(-)-2,10,11-Trihydroxy-N-propylnoraporphine hydrobromide [Compound 438]","Compound effect (percent receptor signaling in presence of test compound, relative lux units relative to the SCH23390 control)",AaDOP2 [3]; [10],88%
R(-)-Apocodeine hydrochloride [Compound 435],"Compound effect (percent receptor signaling in presence of test compound, relative lux units relative to the SCH23390 control)",AaDOP2 [3],98
R(-)-Isoproterenol (+)-bitartrate [Compound 640],"Compound effect (percent receptor signaling in presence of test compound, relative lux units relative to the SCH23390 control)",AaDOP2 [3]; [10],118%
R(-)-Me5 [Compound 734],"Compound effect (percent receptor signaling in presence of test compound, relative lux units relative to the SCH23390 control)",AaDOP2 [3],93
R(-)-Propylnorapomorphine hydrochloride [Compound 436],"Compound effect (percent receptor signaling in presence of test compound, relative lux units relative to the SCH23390 control)",AaDOP2 [3],99
R-(-)-Deprenyl hydrochloride [Compound 813],"Compound effect (percent receptor signaling in presence of test compound, relative lux units relative to the SCH23390 control)",AaDOP2 [3],93
R-(-)-Desmethyldeprenyl hydrochloride [Compound 407],"Compound effect (percent receptor signaling in presence of test compound, relative lux units relative to the SCH23390 control)",AaDOP2 [3],90
S(-)-Timolol maleate [Compound 1191],"Compound effect (percent receptor signaling in presence of test compound, relative lux units relative to the SCH23390 control)",AaDOP2 [3],88
S-Nitroso-N-acetylpenicillamine [Compound 846],"Compound effect (percent receptor signaling in presence of test compound, relative lux units relative to the SCH23390 control)",AaDOP2 [3]; [10],88%
SB 224289 hydrochloride [Compound 1142],"Compound effect (percent receptor signaling in presence of test compound, relative lux units relative to the SCH23390 control)",AaDOP2 [3],95
SKF 83565 hydrobromide [Compound 1096],"Compound effect (percent receptor signaling in presence of test compound, relative lux units relative to the SCH23390 control)",AaDOP2 [3]; [10],57%
SKF 95282 dimaleate [Compound 1237],"Compound effect (percent receptor signaling in presence of test compound, relative lux units relative to the SCH23390 control)",AaDOP2 [3],96
"Seglitide [Compound 1079, reference compound]","Compound effect (percent receptor signaling in presence of test compound, relative lux units relative to the SCH23390 control)",AaDOP2 [3],102
TFPI hydrochloride [Compound 1197],"Compound effect (percent receptor signaling in presence of test compound, relative lux units relative to the SCH23390 control)",AaDOP2 [3]; [10],96%
VER-3323 hemifumarate salt [Compound 706],"Compound effect (percent receptor signaling in presence of test compound, relative lux units relative to the SCH23390 control)",AaDOP2 [3],82
WB 64 [Compound 1263],"Compound effect (percent receptor signaling in presence of test compound, relative lux units relative to the SCH23390 control)",AaDOP2 [3],83
cis-(±)-8-OH-PBZI hydrobromide [Compound 918],"Compound effect (percent receptor signaling in presence of test compound, relative lux units relative to the SCH23390 control)",AaDOP2 [3]; [10],88%
